Test results reported in patent publication US7816408B2, “Calcium receptor active compounds” (NPS Pharmaceuticals, Inc., priority 2002, dated 2010).

Experiments:
human calcium receptor = target: T1, human calcium receptor (Homo sapiens, UniProt P41180); assay: Activity on calcium receptors: fluo-3 fluorescence in HEK293 cells transfected with human calcium receptor gene; format: cell-based; settings: HEK293 cells transfected with plasmid pHuPCaR4.0 (human calcium receptor gene), loaded with fluo-3; 1 mM CaCl2, 1 mM MgCl2
T1 construct: expressed in transfected cells; host or cells: HEK293
T1 sequence (P41180 20-1078): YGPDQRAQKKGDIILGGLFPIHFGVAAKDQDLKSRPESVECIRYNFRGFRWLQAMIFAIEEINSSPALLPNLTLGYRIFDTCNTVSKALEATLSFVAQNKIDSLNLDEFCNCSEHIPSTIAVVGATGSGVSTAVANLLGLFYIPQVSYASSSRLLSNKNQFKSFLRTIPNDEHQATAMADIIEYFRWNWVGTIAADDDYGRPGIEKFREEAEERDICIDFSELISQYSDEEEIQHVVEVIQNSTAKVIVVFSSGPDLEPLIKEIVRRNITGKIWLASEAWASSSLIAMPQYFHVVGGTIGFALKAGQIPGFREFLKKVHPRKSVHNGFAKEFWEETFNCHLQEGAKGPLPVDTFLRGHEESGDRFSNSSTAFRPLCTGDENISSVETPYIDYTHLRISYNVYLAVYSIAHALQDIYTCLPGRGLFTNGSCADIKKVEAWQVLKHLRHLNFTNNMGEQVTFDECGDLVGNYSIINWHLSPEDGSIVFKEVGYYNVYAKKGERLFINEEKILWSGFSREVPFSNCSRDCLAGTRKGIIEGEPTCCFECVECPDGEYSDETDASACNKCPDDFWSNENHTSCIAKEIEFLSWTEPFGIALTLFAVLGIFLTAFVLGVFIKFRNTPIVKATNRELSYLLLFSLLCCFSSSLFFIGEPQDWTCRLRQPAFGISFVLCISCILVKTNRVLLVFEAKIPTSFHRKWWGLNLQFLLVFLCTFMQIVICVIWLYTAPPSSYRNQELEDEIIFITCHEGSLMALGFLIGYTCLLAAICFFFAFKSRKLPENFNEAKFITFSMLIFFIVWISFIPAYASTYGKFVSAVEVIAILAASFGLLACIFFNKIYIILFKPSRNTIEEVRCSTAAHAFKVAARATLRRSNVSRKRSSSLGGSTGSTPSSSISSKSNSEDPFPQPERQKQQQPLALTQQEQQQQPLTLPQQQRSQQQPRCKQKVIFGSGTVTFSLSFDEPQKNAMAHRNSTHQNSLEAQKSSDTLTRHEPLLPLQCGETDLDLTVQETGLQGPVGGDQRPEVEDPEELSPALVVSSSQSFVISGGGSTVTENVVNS
Summary of the method: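 HEK293 cells transfected with human calcium receptor plasmid, loaded 1 h at 37 °C with about 5 μM fluo-3/AM. Cells then rinsed into HEPES-buffered HBSS with 1 mM CaCl2 and 1 mM MgCl2. Fluorescence read at 485/540 nm after compound addition.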

normal male SD rats = assay: Plasma Ca^2+ level of rats after single oral administration; format: in vivo; settings: rat, mean of six animals, vehicle 10% cyclodextrin (** 1% sodium-CMC); for Plasma Ca^2+ (mmol/l) 1 hr: 1 hr after single oral dose 30 μmol/kg; for Plasma Ca^2+ (mmol/l) 2 hr: 2 hr after single oral dose 30 μmol/kg; for Plasma Ca^2+ (mmol/l) 4 hr: 4 hr after single oral dose 30 μmol/kg; for Plasma Ca^2+ (mmol/l) 8 hr: 8 hr after single oral dose 30 μmol/kg
Summary of the method: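 Normal male SD rats (n=6/group) received a single oral dose of 30 μmol/kg in 10% cyclodextrin or, for some compounds, 1% sodium-CMC; vehicle controls received 2.5 ml/kg. Tail blood was drawn pre-dose and at 30 min and 1, 2, 4, 8 and 24 h for plasma Ca^2+ and serum PTH. PTH was compared with vehicle by Steel's test.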

Compound | EC50 (human calcium receptor) [nM] | Plasma Ca^2+ (mmol/l) 1 hr (normal male SD rats) [mmol/L] | Plasma Ca^2+ (mmol/l) 2 hr (normal male SD rats) [mmol/L] | Plasma Ca^2+ (mmol/l) 4 hr (normal male SD rats) [mmol/L] | Plasma Ca^2+ (mmol/l) 8 hr (normal male SD rats) [mmol/L] | Plasma Ca^2+ (mmol/l) 27 hr (footnote *b, 24 hr) (normal male SD rats; 27 hr after single oral dose 30 μmol/kg) | Plasma Ca^2+ (mmol/l) 0 hr (normal male SD rats; 0 hr = before oral administration of 30 μmol/kg) [mmol/L]
C[C@@H](NCCCCSc1cc(Cl)c(Cl)cc1Cl)c1cccc2ccccc12 [Compound K-2281, N-[(1R)-1-(1-naphthyl)ethyl]-N-{4-[(2,4,5-trichlorophenyl)thio]butyl}amine] | 430 | 1.380 | 1.245 | 1.103 | 0.993 | 1.230*^b mmol/l | 
C[C@@H](NCCCCCSc1c(F)c(F)c(C(F)(F)F)c(F)c1F)c1cccc2ccccc12 [Compound K-2284, N-[(1R)-1-(1-naphthyl)ethyl]-N-(5-{[2,3,5,6-tetrafluoro-4-(trifluoromethyl)phenyl]thio}pentyl) amine] | 360 | 1.377 | 1.267 | 1.152 | 1.102 |  | 
CCCCCCOc1cccc(C(C)NCCSc2cc(Cl)ccc2Cl)c1 (racemic) [Compound K-2255, (±)-N-(1-(3-n-hexyloxyphenyl)ethyl)-2-(2′,5′-dichlorophenylthio)ethylamine] | 9600 | 1.328 | 1.212 | 1.177 | 1.232 |  | 
C[C@@H](NCCCCSc1c(F)c(F)c(C(F)(F)F)c(F)c1F)c1cccc2ccccc12 [Compound K-2297, N-[(1R)-1-(1-naphthyl)ethyl]-N-(4-{[2,3,5,6-tetrafluoro-4-(trifluoromethyl)phenyl]thio}butyl)amine] | 230 | 1.393 | 1.305 | 1.172 | 1.082 |  | 
C[C@@H](NCCCCCSc1ccc(F)cc1)c1cccc2ccccc12 [Compound K-2052, N-{5-[(4-fluorophenyl)thio]pentyl}-N-[(1R)-1-(1-naphthyl)ethyl]amine] | 5700 | 1.283 | 1.187 | 1.087 | 1.185 |  | 
C[C@@H](NCCC(=O)N(Cc1ccc(Cl)cc1)Cc1ccc(OC(F)(F)F)cc1)c1cccc2ccccc12 [Compound K-2283, N1-(4-chlorobenzyl)-N1-[4-(trifluoromethoxy)benzyl)-3-{[(1R)-1-(1-naphthyl)ethyl]-amino}propanamide] | 93 | 1.395 | 1.305 | 1.210 | 1.253 |  | 
C[C@@H](NCCC(=O)N(Cc1ccccc1)Cc1ccc(Cl)cc1)c1cccc2ccccc12 [Compound K-2247, N1-benzyl-N1-(4-chlorobenzyl)-3-{[(1R)-1-(1-naphthyl)ethyl]amino}propanamide] | 130 | 1.378 | 1.298 | 1.175 | 1.217 |  | 
CCOc1ccc2sc(SCCCCN[C@H](C)c3cccc4ccccc34)nc2c1 [Compound K-2271] | 140 | 1.278 | 1.227 | 1.128 | 1.197 |  | 1.428
